Measurements: patent US12077503B2, “Substituted cyclic amides and their use as herbicides” (FMC CORPORATION, priority 2015, dated 2024)

Assays:
Type in all cases: in vivo
[1] = tested on: redroot pigweed (Amaranthus retroflexus); test: Test G Post-Emergence Protocol; details: Amaranthus retroflexus, post-emergence, 312 h, read-out: Pigweed, Redroot damage rating; for pest or weed control at 15.625 g/ha: 15.625 g ai/ha, evaluated after 13 days (100=total damage to plant; 0=no damage to plant); for pest or weed control at 62.5 g/ha: 62.5 g ai/ha; for pest or weed control at 62.5 g/ha / pest or weed control at 250 g/ha: evaluated after 13 days, 100=total damage to plant, 0=no damage to plant; for pest or weed control at 250 g/ha: 250 g ai/ha
Method in brief: (§1)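 Post-emergence herbicidal damage, scored visually 0–100 at 13 days. Application at 15.625, 62.5 or 250 g/ha onto 8-day-old plants grown under glasshouse control.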

corn (Zea mays) [2] = test: Test G Post-Emergence Protocol; details: Zea mays, post-emergence, 312 h, read-out: Corn damage rating; for plant injury at 15.625 g/ha: 15.625 g ai/ha, evaluated after 13 days (100=total damage to plant; 0=no damage to plant); for plant injury at 62.5 g/ha: 62.5 g ai/ha; for plant injury at 62.5 g/ha / plant injury at 250 g/ha: evaluated after 13 days, 100=total damage to plant, 0=no damage to plant; for plant injury at 250 g/ha: 250 g ai/ha
Method in brief: as §1

[3] = tested on: ivy-leaved morning glory (Ipomoea hederacea); test: Test G Post-Emergence Protocol; details: Ipomoea, post-emergence, 312 h, read-out: Morningglory, Ivy-leaved damage rating; for pest or weed control at 15.625 g/ha: 15.625 g ai/ha, evaluated after 13 days (100=total damage to plant; 0=no damage to plant); for pest or weed control at 62.5 g/ha: 62.5 g ai/ha; for pest or weed control at 62.5 g/ha / pest or weed control at 250 g/ha: evaluated after 13 days, 100=total damage to plant, 0=no damage to plant; for pest or weed control at 250 g/ha: 250 g ai/ha
Method in brief: as §1

[4] = tested on: giant foxtail (Setaria faberi); test: Test G Post-Emergence Protocol; details: Setaria faberi, post-emergence, 312 h, read-out: Foxtail, Giant damage rating; for pest or weed control at 15.625 g/ha: 15.625 g ai/ha, evaluated after 13 days (100=total damage to plant; 0=no damage to plant); for pest or weed control at 62.5 g/ha: 62.5 g ai/ha; for pest or weed control at 62.5 g/ha / pest or weed control at 250 g/ha: evaluated after 13 days, 100=total damage to plant, 0=no damage to plant; for pest or weed control at 250 g/ha: 250 g ai/ha
Method in brief: as §1

[5] = tested on: velvetleaf (Abutilon theophrasti); test: Test G Post-Emergence Protocol; details: Abutilon theophrasti, post-emergence, 312 h, read-out: Velvetleaf damage rating; for pest or weed control at 15.625 g/ha: 15.625 g ai/ha, evaluated after 13 days (100=total damage to plant; 0=no damage to plant); for pest or weed control at 62.5 g/ha: 62.5 g ai/ha; for pest or weed control at 62.5 g/ha / pest or weed control at 250 g/ha: evaluated after 13 days, 100=total damage to plant, 0=no damage to plant; for pest or weed control at 250 g/ha: 250 g ai/ha
Method in brief: as §1

[6] = tested on: barnyardgrass (Echinochloa crus-galli); test: Test G Post-Emergence Protocol; details: Echinochloa crus-galli, post-emergence, 312 h, read-out: Barnyardgrass damage rating; for pest or weed control at 15.625 g/ha: 15.625 g ai/ha, evaluated after 13 days (100=total damage to plant; 0=no damage to plant); for pest or weed control at 62.5 g/ha: 62.5 g ai/ha; for pest or weed control at 62.5 g/ha / pest or weed control at 250 g/ha: evaluated after 13 days, 100=total damage to plant, 0=no damage to plant; for pest or weed control at 250 g/ha: 250 g ai/ha
Method in brief: as §1

[7] = tested on: redroot pigweed (Amaranthus retroflexus); test: Test G Pre-Emergence Protocol; details: Amaranthus retroflexus, pre-emergence, 312 h, evaluated after 13 days; for pest or weed control at 15.625 g/ha: 15.625 g ai/ha; for pest or weed control at 15.625 g/ha / pest or weed control at 250 g/ha: read-out: Pigweed, Redroot damage rating (100=total damage to plant; 0=no damage to plant); for pest or weed control at 62.5 g/ha: 62.5 g ai/ha, 100=total damage to plant, 0=no damage to plant, read-out: Pigweed, Redroot damage rating; for pest or weed control at 250 g/ha: 250 g ai/ha
Method in brief: (§2)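 Visual injury (0–100) at day 13 after a single pre-emergence spray. Rates: 15.625, 62.5, 250 g/ha in acetone–water 50:50 with 0.5% Tween 20. Growth conditions: 24/16° C, 14 h light, 65% humidity.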

corn (Zea mays) [8] = test: Test G Pre-Emergence Protocol; details: Zea mays, pre-emergence, 312 h, evaluated after 13 days; for plant injury at 15.625 g/ha: 15.625 g ai/ha; for plant injury at 15.625 g/ha / plant injury at 250 g/ha: read-out: Corn damage rating (100=total damage to plant; 0=no damage to plant); for plant injury at 62.5 g/ha: 62.5 g ai/ha, 100=total damage to plant, 0=no damage to plant, read-out: Corn damage rating; for plant injury at 250 g/ha: 250 g ai/ha
Method in brief: as §2

[9] = tested on: ivy-leaved morning glory (Ipomoea hederacea); test: Test G Pre-Emergence Protocol; details: Ipomoea, pre-emergence, 312 h, evaluated after 13 days; for pest or weed control at 15.625 g/ha: 15.625 g ai/ha; for pest or weed control at 15.625 g/ha / pest or weed control at 250 g/ha: read-out: Morningglory, Ivy-leaved damage rating (100=total damage to plant; 0=no damage to plant); for pest or weed control at 62.5 g/ha: 62.5 g ai/ha, 100=total damage to plant, 0=no damage to plant, read-out: Morningglory, Ivy-leaved damage rating; for pest or weed control at 250 g/ha: 250 g ai/ha
Method in brief: as §2

[10] = tested on: giant foxtail (Setaria faberi); test: Test G Pre-Emergence Protocol; details: Setaria faberi, pre-emergence, 312 h, evaluated after 13 days; for pest or weed control at 15.625 g/ha: 15.625 g ai/ha; for pest or weed control at 15.625 g/ha / pest or weed control at 250 g/ha: read-out: Foxtail, Giant damage rating (100=total damage to plant; 0=no damage to plant); for pest or weed control at 62.5 g/ha: 62.5 g ai/ha, 100=total damage to plant, 0=no damage to plant, read-out: Foxtail, Giant damage rating; for pest or weed control at 250 g/ha: 250 g ai/ha
Method in brief: as §2

[11] = tested on: velvetleaf (Abutilon theophrasti); test: Test G Pre-Emergence Protocol; details: Abutilon theophrasti, pre-emergence, 312 h, evaluated after 13 days; for pest or weed control at 15.625 g/ha: 15.625 g ai/ha; for pest or weed control at 15.625 g/ha / pest or weed control at 250 g/ha: read-out: Velvetleaf damage rating (100=total damage to plant; 0=no damage to plant); for pest or weed control at 62.5 g/ha: 62.5 g ai/ha, 100=total damage to plant, 0=no damage to plant, read-out: Velvetleaf damage rating; for pest or weed control at 250 g/ha: 250 g ai/ha
Method in brief: as §2

[12] = tested on: barnyardgrass (Echinochloa crus-galli); test: Test G Pre-Emergence Protocol; details: Echinochloa crus-galli, pre-emergence, 312 h, evaluated after 13 days; for pest or weed control at 15.625 g/ha: 15.625 g ai/ha; for pest or weed control at 15.625 g/ha / pest or weed control at 250 g/ha: read-out: Barnyardgrass damage rating (100=total damage to plant; 0=no damage to plant); for pest or weed control at 62.5 g/ha: 62.5 g ai/ha, 100=total damage to plant, 0=no damage to plant, read-out: Barnyardgrass damage rating; for pest or weed control at 250 g/ha: 250 g ai/ha
Method in brief: as §2

CN1CC(c2ccc(F)c(OCC(F)(F)F)c2)C(C(=O)Nc2cccc(F)c2F)C1=O (stereo not drawn) [Compound 1718]
pest or weed control at 15.625 g/ha [1]: 30% | pest or weed control at 62.5 g/ha [1]: 40% | pest or weed control at 250 g/ha [1]: 70% | plant injury at 15.625 g/ha (corn (Zea mays) [2]): 30% | plant injury at 62.5 g/ha (corn (Zea mays) [2]): 50% | plant injury at 250 g/ha (corn (Zea mays) [2]): 80% | pest or weed control at 15.625 g/ha [3]: 10% | pest or weed control at 62.5 g/ha [3]: 60% | pest or weed control at 250 g/ha [3]: 70% | pest or weed control at 15.625 g/ha [4]: 70% | pest or weed control at 62.5 g/ha [4]: 80% | pest or weed control at 250 g/ha [4]: 80% | pest or weed control at 15.625 g/ha [5]: 20% | pest or weed control at 62.5 g/ha [5]: 40% | pest or weed control at 250 g/ha [5]: 60% | pest or weed control at 15.625 g/ha [6]: 50% | pest or weed control at 62.5 g/ha [6]: 70% | pest or weed control at 250 g/ha [6]: 80% | pest or weed control at 15.625 g/ha [7]: 0% | pest or weed control at 62.5 g/ha [7]: 0% | pest or weed control at 250 g/ha [7]: 60% | plant injury at 15.625 g/ha (corn (Zea mays) [8]): 0% | plant injury at 62.5 g/ha (corn (Zea mays) [8]): 50% | plant injury at 250 g/ha (corn (Zea mays) [8]): 80% | pest or weed control at 15.625 g/ha [9]: 0% | pest or weed control at 62.5 g/ha [9]: 0% | pest or weed control at 250 g/ha [9]: 10% | pest or weed control at 15.625 g/ha [10]: 60% | pest or weed control at 62.5 g/ha [10]: 80% | pest or weed control at 250 g/ha [10]: 90% | pest or weed control at 15.625 g/ha [11]: 0% | pest or weed control at 62.5 g/ha [11]: 0% | pest or weed control at 250 g/ha [11]: 50% | pest or weed control at 15.625 g/ha [12]: 60% | pest or weed control at 62.5 g/ha [12]: 70% | pest or weed control at 250 g/ha [12]: 90%

Cc1cc(C2CN(C)C(=O)C2C(=O)Nc2cccc(F)c2F)cc(C(F)(F)F)c1 (stereo not drawn) [Compound 1723]
pest or weed control at 15.625 g/ha [1]: 20% | pest or weed control at 62.5 g/ha [1]: 20% | pest or weed control at 250 g/ha [1]: 30% | plant injury at 15.625 g/ha (corn (Zea mays) [2]): 30% | plant injury at 62.5 g/ha (corn (Zea mays) [2]): 60% | plant injury at 250 g/ha (corn (Zea mays) [2]): 70% | pest or weed control at 15.625 g/ha [3]: 30% | pest or weed control at 62.5 g/ha [3]: 70% | pest or weed control at 250 g/ha [3]: 40% | pest or weed control at 15.625 g/ha [4]: 70% | pest or weed control at 62.5 g/ha [4]: 80% | pest or weed control at 250 g/ha [4]: 80% | pest or weed control at 15.625 g/ha [5]: 10% | pest or weed control at 62.5 g/ha [5]: 10% | pest or weed control at 250 g/ha [5]: 20% | pest or weed control at 15.625 g/ha [6]: 30% | pest or weed control at 62.5 g/ha [6]: 80% | pest or weed control at 250 g/ha [6]: 80% | pest or weed control at 15.625 g/ha [7]: 0% | pest or weed control at 62.5 g/ha [7]: 0% | pest or weed control at 250 g/ha [7]: 30% | plant injury at 15.625 g/ha (corn (Zea mays) [8]): 0% | plant injury at 62.5 g/ha (corn (Zea mays) [8]): 0% | plant injury at 250 g/ha (corn (Zea mays) [8]): 60% | pest or weed control at 15.625 g/ha [9]: 0% | pest or weed control at 62.5 g/ha [9]: 0% | pest or weed control at 250 g/ha [9]: 10% | pest or weed control at 15.625 g/ha [10]: 60% | pest or weed control at 62.5 g/ha [10]: 70% | pest or weed control at 250 g/ha [10]: 90% | pest or weed control at 15.625 g/ha [11]: 0% | pest or weed control at 62.5 g/ha [11]: 0% | pest or weed control at 250 g/ha [11]: 10% | pest or weed control at 15.625 g/ha [12]: 10% | pest or weed control at 62.5 g/ha [12]: 40% | pest or weed control at 250 g/ha [12]: 90%
